Reference: patent publication US4731109A, “Herbicidal 2-haloacetanilides” (Monsanto Company, priority 1982, dated 1988)

Columns and labels:
Test in all cases: Greenhouse pre-emergence GR15/GR85 selectivity test
Format in all cases: in vivo
[1] = system: peanuts; details: Table XVI
Source text: (§1) A good grade of top soil is placed in aluminum pans and compacted to a depth of three-eighths to one-half inch from the top of the pan. On the top of the soil is placed a number of seeds or vegetative propagules of various plant species. The soil required to level fill the pans after seeding or adding vegetative propagules is weighed into a pan. The soil and a known amount of the active ingredient applied in a solvent or as a wettable powder suspension are thoroughly mixed, and used to cover the prepared pans. After treatment, the pans are given an initial overhead irrigation of eater, equivalent to one-fourth inch (0.64 cm) rainfall, then watered by subirrigation as need to give adequate moisture for germination and growth. As an alternative procedure, the overhead irrigation may be omitted. Observations are made about 2-3 weeks after seeding and treatment.
(§2) In the discussion and tables of data below, reference is made to herbicide application rates symbolized as "GR15 " and "GR85 "; these rates are given in kilograms per hectare (kg/ha) which are convertible into pounds per acre (lbs/A) by dividing the kg/ha rate by 1.12.
(§3) A further guide to the effectiveness of a chemical as a selective herbicide is the "selectivity factor" ("SF") for a herbicide in given crops and weeds. The selectivity factor is a measure of the relative degree of crop safety and weed injury and is expressed in terms of the GR15 /GR85 ratio, i.e., the GR15 rate for the crop divided by the GR85 rate for the weed, both rates in kg/ha (lb/A). In the tables below, selectivity factors are shown in parenthesis following the GR85 rate for each weed; the symbol "NS" indicates "non-selective". Marginal or undetermined selectivity is indicated by a dash (--).
(§4) Additionally, pre-emergence herbicidal data from other tests have established that compounds according to this invention also selectively suppress quackgrass, yellow nutsedge and/or other weeds in one or more of the crops cotton, peanuts, bush beans and/or rape. For example, in Table VI are presented data showing the herbicidal selectivity of the compounds of Examples 1 and 2 against quackgrass in rape and snap beans. Unless otherwise noted; greenhouse tests in Table VI and in other tables below involved herbicide treatments by soil incorporation and an initial overhead irrigation followed by subirrigation as described above.
(§5) Additional greenhouse tests were made to test certain compounds of this invention against a plurality of problem weeds in peanuts and lima beans; except for fall panicum, the test weeds are particularly resistant weeds; the test data is set forth in Table XVI.
(§6) In Table XVI, the selectivity factors for the test compounds for each weed in lima beans is shown as the first or upper value in parenthesis and the selectivity factors for each weed in peanuts is shown as the second or lower value in parenthesis for each compound. For example, the selectivity factor for the compound of Example 3 for seedling johnsongrass in lima beans is 2.1 and in peanuts, >4.9; the selectivity factor for Texas panicum in lima beans is 1.1 and in peanuts, >2.6, etc.

[2] = system: lima beans; details: Table XVI
Source text: as §1, §2, §3, §4, §5, §6

[3] = system: redroot pigweed; details: Table XV; for selectivity factor (GR15/GR85): in rape
Method in brief: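 Pre-emergence soil-incorporation test: seeded pans were covered with topsoil mixed with active ingredient (in solvent or as wettable powder), overhead-irrigated (0.64 cm) or not, then subirrigated. Plants were scored about 2-3 weeks after treatment. GR15/GR85 rates are in kg/ha, and selectivity factor is crop GR15 divided by weed GR85.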

Row | SMILES | GR15 Rate [1] | GR15 Rate [2] | GR85 Rate [3] | selectivity factor (GR15/GR85) [3]
1 | CCOCN(C(=O)CCl)c1c(CC)cccc1C(F)(F)F [Example 9, N--(ethoxymethyl)-2'-trifluoromethyl-6'-ethyl-2-chloroacetanilide] | 0.90 Kg/Ha | 0.75 Kg/Ha | 0.70 Kg/Ha | 1.4
2 | CCCOCN(C(=O)CCl)c1c(C)cccc1C(F)(F)F [Example 3, N--(n-propoxymethyl)-2'-trifluoromethyl-6'-methyl-2-chloroacetanilide] | > 1.12 Kg/Ha | 0.49 Kg/Ha | 0.39 Kg/Ha | 2.3
3 | CCCOCN(C(=O)CCl)c1c(CC)cccc1C(F)(F)F [Example 10, N--(n-propoxymethyl)-2'-trifluoromethyl-6'-ethyl-2-chloroacetanilide] | 0.98 Kg/Ha | > 1.12 Kg/Ha | 0.70 Kg/Ha | > 1.6
4 | Cc1cccc(C(F)(F)F)c1N(COC(C)C)C(=O)CCl [Example 4, N--(isopropoxymethyl)-2'-trifluoromethyl-6'-methyl-2-chloroacetanilide] | 0.98 Kg/Ha | > 1.12 Kg/Ha | 0.50 Kg/Ha | > 2.2
5 | Cc1cccc(C(F)(F)F)c1N(COCC(C)C)C(=O)CCl [Example 5, N--(isobutoxymethyl)-2'-trifluoromethyl-6'-methyl-2-chloroacetanilide] | 0.56 Kg/Ha | > 1.12 Kg/Ha | 0.50 Kg/Ha | > 2.2
